Columns and labels:
[1] = Solubility test: amount dissolved in 10 g of solvent, visually inspected; format: physicochemical
Procedure: Benzo[c]thiophene-1,3-dihydro-2-oxide was dissolved a little at a time in 10 g of a solvent, and the amount of dissolution was visually inspected.
1,3-dihydroisothianaphthene was dissolved a little at a time in 10 g of a solvent.

[2] = Stability test after dissolution: visual observation of the solution; format: physicochemical; conditions: in the air
Procedure: (§1) 1.0 g of benzo[c]thiophene-1,3-dihydro-2-oxide and 0.25 g of p-toluenesulfonic acid-hydrate (pTSA, molar ratio: 5/1) were dissolved in 11.0 g of each solvent (solid content: 10 mass %) in composition as shown in Table 3 in the air. The solution was visually observed immediately (early period), 24 hours, and one week after the dissolution.
as §1, with “1,3-dihydroisothianaphthene” for “benzo[c]thiophene-1,3-dihydro-2-oxide”, “0.28” for “0.25”, “11.3” for “11.0”, “4” for “3”
A part of the prepared aqueous solution was delivered by drops onto a glass plate, followed by heating and drying at 120° C. for 1 hour. The generated solid was black. The generation of polyisothianaphthene was confirmed from the measurement of the UV spectrum obtained by adding the product to water.
A part of the prepared solution was delivered by drops onto a glass plate, followed by heating and drying at 120° C. for 1 hour. The generated solid was black. The generation of polyisothianaphthene was confirmed from the measurement of the UV spectrum obtained by adding the product to water.

[3] = 4° C., DMSO, pTSA (molar ratio 5/1), solid content 10 mass %
[4] = 25° C., DMSO, pTSA (molar ratio 5/1), solid content 10 mass %
[5] = 25° C., EtOH, pTSA (molar ratio 5/1), solid content 10 mass %
[6] = 25° C., solvent None, catalyst None

| Structure (SMILES) | Dissolution amount ([1]; solvent: Dimethyl formamide) | Dissolution amount ([1]; solvent: Dimethyl sulfoxide) | Dissolution amount ([1]; solvent: Ethanol) | Dissolution amount ([1]; solvent: Ethylene glycol) | Dissolution amount ([1]; solvent: Isopropanol) | Dissolution amount ([1]; solvent: Methanol) | Dissolution amount ([1]; solvent: Water) | Visual observation After 1 week [2, 3] | Visual observation After 24 hours [2, 3] | Visual observation After 1 week [2, 4] | Visual observation After 24 hours [2, 4] | Visual observation After 1 week [2, 5] | Visual observation After 24 hours [2, 5] | Visual observation After 1 week [2, 6] | Visual observation After 24 hours [2, 6] |
| --- | --- | --- | --- | --- | --- | --- | --- | --- | --- | --- | --- | --- | --- | --- | --- |
| c1ccc2c(c1)CSC2 [Comparative Example 1, 1,3-dihydroisothianaphthene] | Soluble | Soluble | Soluble | Insoluble | Soluble | Slightly soluble | Insoluble | Pale yellow | Pale yellow | Deep blue | Pale brown | Deep blue | Brownish red | Pale brown | Pale yellow |
| [O-][S+]1Cc2ccccc2C1 [Example 1, benzo[c]thiophene-1,3-dihydro-2-oxide] | Soluble | Soluble | Soluble | Soluble | Soluble | Soluble | Soluble |  |  |  |  |  |  |  |  |
